Reference: US11980596B2 (priority 2017, dated 2024)

Legend:
CYP2B6, CYP3A4, CYP1A2 = test: CYP induction in human hepatocytes
patients with TRD = test: Sedation by MOAA/s in SPRAVATO clinical trials (label); type: in vivo, human; conditions: after dosing
Experimental: In clinical trials, 49% to 61% of SPRAVATO-treated patients developed sedation based on the Modified Observer's Alertness/Sedation scale (MOAA/s) [see Adverse Reactions (6.1)], and 0.3% of SPRAVATO-treated patients experienced loss of consciousness (MOAA/s score of 0).
Sedation was evaluated by adverse event reports and using the Modified Observer's Alertness/Sedation scale (MOAA/s). In the MOAA/s scale, 5 means “responds readily to name spoken in normal tone” and 0 means “no response after painful trapezius squeeze.” Any decrease in MOAA/s from pre-dose is considered to indicate presence of sedation, and such a decrease occurred in a higher number of patients on esketamine than placebo during the short-term trials (Table 4).

[1] = 14-day; 54 mg/day
Experimental: This study includes a single dose and 14-day repeated dose neurotoxicity studies with intranasally administered esketamine in female rats 12 to 14 weeks of age. These studies were conducted to investigate whether single or repeated intranasal administrations of esketamine induced neurodegenerative changes in the rat brain. The study results were used to estimate an esketamine exposure-based safety margin compared with the maximum dose of esketamine administered intranasally to depressed adult patients in clinical trials.
Each group of main study animals consisted of 12 female rats. Four satellite animals were added to the esketamine HCl-dosed groups of main study animals for TK purposes. The plasma exposure to esketamine was measured in these animals on the first and the last day of dosing at various time points up to and including 24 hours after the first instillation.

With `CN[C@]1(c2ccccc2Cl)CCCCC1=O` [esketamine, (S)-2-(2-chlorophenyl)-2-(methylamino)cyclohexanone] the “Induction of CYP1A2” value (CYP2B6, CYP3A4, CYP1A2; hepatocytes) was “do not induce”, the “Induction of CYP2B6 and CYP3A4” value (CYP2B6, CYP3A4, CYP1A2; human hepatocytes) was “modest induction effects” and the “Inhibition potential against CYPs and UGTs” value (CYPs and UGTs) was “did not show inhibition potential”. For the same molecule, the “Sedative effects typically resolved by” value (patients with TRD) was no more than 1.5 h, the “AUC-based safety margin compared with the maximum 84 mg clinical dose” value [1] was roughly 11 fold and the “Cmax-based safety margin compared with the maximum 84 mg clinical dose” value [1] was “approximately 17 fold”.
